# Source: a melting point compilation (Tetko et al.; mined from patent text by program, amines drawn as free bases though some values may be those of a salt)
row,melting point [°C],SMILES
1,156,O=C(O)COc1ccc(/C=C/C(=O)C(F)(F)F)cc1
2,155 to 156,CC(C)(C)OC(=O)N1CCN(C(=O)c2cc(C(F)(F)F)cc(C(F)(F)F)c2)[C@H](Cc2c[nH]c3ccccc23)C1
3,106 to 108,CCOC(=O)C(C(=O)C(C)C)C(c1ccc(F)cc1)c1ccccn1 (centres undefined)
4,195 to 197,O=C(OCc1ccccc1)c1cc2c(=O)n(Cc3ccccc3)c(=O)[nH]c2s1
5,93 to 95,Cc1cn(C2CC(O[Si](C)(C)C(C)(C)C)C(CO)O2)c(=O)[nH]c1=O (centres undefined)
6,197,O=C(CC(F)(F)F)N[C@H]1CC[C@H](CCN2CCC(c3cccc4c3CCO4)CC2)CC1
7,57,C=CCCc1ccc(C=NN=Cc2ccc(CCC=C)cc2)cc1
8,165 to 168,CC12CCC(OC(=O)c3ccc(N)cc3)CC1=CCC1C2CCC2(C)C(=NO)CCC12 (centres undefined)
9,140 to 141,CCCc1c(OCCCOc2ccc3ccc(OCC(=O)O)cc3c2C(C)=O)ccc(C(C)=O)c1O
10,> 250,O=C(O)C1CCN(C(=O)c2ccccc2SSc2ccccc2C(=O)N2CCC(C(=O)O)CC2)CC1
11,155,CCOc1nn(C(=O)NS(=O)(=O)c2c(C)cccc2OC(C)C)c(=O)n1C
12,101 to 103,CCOC(=O)C(C(=O)OCC)c1cc(=O)n(-c2ccccc2)c2ccccc12
13,225,Nc1cccc(-c2ccc3nncn3n2)c1
14,182 to 183,COc1ccc(C(=O)N2CCCC3=C2CCc2cc(Cl)ccc23)cc1
15,133 to 135,COc1ccc(-c2cccc(C(N)=O)c2)cc1OC1CCCC1
16,210 to 220,c1c(NC23CC4CC(CC(C4)C2)C3)nc(N2CCNCC2)nc1NC12CC3CC(CC(C3)C1)C2
17,144 to 146,COc1cc(-n2c(C#N)c3n(c2=O)CCCCC3)c(F)cc1Cl
18,154 to 157,Cc1ccc(S(=O)(=O)N(CC(=O)N(C)C)c2ccc(Cl)cc2C(=O)c2ccccc2Cl)cc1
19,133 to 136,CC(=O)N1CCN(c2cc(Cl)c(Cl)c(Cl)c2)CC1

row,melting point [°C],SMILES
1,137 to 139,Cc1ccc(-c2cccc(/C=C/C(=O)Nc3ccc(CN4CCCCC4CO)cc3)c2)cc1 (centres undefined)
2,166 to 167,CN(C(CCN1C(=O)c2ccccc2C1=O)C(=O)O)S(=O)(=O)c1ccc(Oc2ccc(Cl)cc2)cc1 (centres undefined)
3,139 to 142,O=[N+]([O-])c1cn(-c2cccnc2)nc1Cl
4,147 to 150,Cc1cc([N+](=O)[O-])ccc1N1CCOCC1
5,250 to 251,Cc1cc2nc3c4cc(N)ccc4n(CCN(C)C)c3nc2cc1C
6,175,O=C(O)CCCc1cc2cc(C(F)(F)F)ccc2n1S(=O)(=O)c1ccc2c(c1)CCN2
7,123 to 124,CCCc1c(OCCCOc2cccc3c2CCCC3)ccc2c1OC(CCCO)(CCCO)CC2O (centres undefined)
8,195 to 196,COCc1noc(-c2ncn3c2c(=O)n(C(C)C)c2ccccc23)n1
9,178 to 180,O=C1CCCN(C(=O)Cc2ccccc2)C(=O)CCc2cc(Cl)ccc21
10,176 to 178,CCN(C(=O)OC)c1cccc(-c2ccc3nnc(C)n3n2)c1
11,190 to 193,CCOCc1nc2c(N)nc(C)c(C)c2n1CC(C)(C)O
12,156 to 171,CC(=O)Nc1ccc(C(=O)NC(=O)N2CCC(Cc3ccc(F)cc3)CC2)cc1
13,173 to 174,NCCNc1nc2ccccc2n(-c2ccc(Cl)cc2)c1=O
14,80 to 81,Cc1ccccc1C1(C#N)C2CC3CC(C2)CC1C3 (centres undefined)
15,108 to 109,CCOC(=O)c1c(C)cc2c(c1C)C(=O)O/C2=C\C#N
16,209 to 212,NC(=NO)c1ncn2c1N1CCN=C1c1ccccc1-2
17,> 270,CSc1nc2nc3cc(C(F)(F)F)ccc3cc2[nH]1
18,125 to 126,Cc1nc(CNc2c(C)cccc2C)n[nH]1
19,190 to 193,Cn1c(/C=C/C2CC(O)CC(=O)O2)c(-c2ccccc2)c2ccccc2c1=O (centres undefined)

row,SMILES,melting point [°C]
1,Cc1ncc(CN2CC=C(c3ccc(F)cc3)CC2)c(N)n1,176 to 178
